Like-named read-outs stand apart in the source and are kept apart here. Where only a bound is given, the exact number is not on record here.

The values that follow come from publication PMC8587515, “Cytotoxic and Anti-Inflammatory Activities of Dihydroisocoumarin and Xanthone Derivatives from Garcinia picrorhiza” (Molecules, 2021).

Test [1] has as its target T1, COX-2 (human recombinant PGHS-2) (Homo sapiens, UniProt P35354).
T1 construct: purchased Cayman Chemical Co., Ann Arbor, MI, USA
T1 sequence (P35354 18-604): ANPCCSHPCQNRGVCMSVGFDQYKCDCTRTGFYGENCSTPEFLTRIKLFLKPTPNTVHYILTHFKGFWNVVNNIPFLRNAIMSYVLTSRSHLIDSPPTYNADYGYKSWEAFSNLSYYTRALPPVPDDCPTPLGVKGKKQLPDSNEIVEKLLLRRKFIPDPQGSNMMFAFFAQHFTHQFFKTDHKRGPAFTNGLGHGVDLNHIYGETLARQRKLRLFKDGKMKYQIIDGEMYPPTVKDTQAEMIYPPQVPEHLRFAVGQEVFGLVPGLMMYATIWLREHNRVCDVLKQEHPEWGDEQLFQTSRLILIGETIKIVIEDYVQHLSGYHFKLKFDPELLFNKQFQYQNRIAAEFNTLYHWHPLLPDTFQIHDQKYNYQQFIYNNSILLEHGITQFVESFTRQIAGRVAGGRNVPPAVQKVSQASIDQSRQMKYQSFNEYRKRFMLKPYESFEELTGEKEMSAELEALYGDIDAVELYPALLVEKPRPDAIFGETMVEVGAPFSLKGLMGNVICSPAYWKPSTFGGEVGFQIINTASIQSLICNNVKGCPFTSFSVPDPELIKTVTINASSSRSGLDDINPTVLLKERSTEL
Kind of test: COX-2 enzyme inhibition assay (PGE2 ELISA). The following applies: mean ± SD (n = 4). Format: biochemical. The procedure:
(§1) The anti-inflammatory effects of the isolated compounds were also screened on COX-1 and COX-2 enzymes inhibition at a final concentration of 20 µM.
(§2) Purified PGHS-1 from ram seminal vesicles for COX-1 and human recombinant PGHS-2 for COX-2 (Cayman Chemical Co., Ann Arbor, MI, USA) were used for the COX inhibition assays. Experiments were performed in a 96-well plate format, as previously described. Briefly, the incubation mixture contained 180 µL of 0.1 M TRIS/HCl-buffer pH 8.0 (Roth, Karlsruhe, Germany), 50 µM Na2EDTA (only for COX-2, Titriplex III, Merck, Darmstadt, Germany), 18 mM L-epinepherine bitartrate (Fluka, Buchs, Switzerland), 5 µM porcine hematin (MP Biomedicals LLC, Solon, OH, USA), and COX-1 or COX-2 enzymes (0.2 U/well). Ten microliters of tested compounds (dissolved in DMSO with a final concentration of 20 µM) was added and the mixture was pre-incubated for 5 min at room temperature. Thereafter, 10 µL of 5 µM arachidonic acid (Ann Arbor, Michigan USA) was added to the mixture and incubated for 20 min at 37 °C. The reaction was subsequently stopped by adding 10 µL of 10% (v/v) formic acid. The concentration of PGE2 generated in the reaction was quantitatively measured by a competitive PGE2 ELISA kit (Enzo Life Sciences Inc., Farmingdale, NY, USA) according to the manufacturer’s protocol and previous procedure. The absorbance at 405 nm was measured using a Hidex Sense Microplate Reader (Hidex, Turku, Finland). […] The assays were performed in duplicates and repeated in two independent experiments.

Test [2] has as its system Hep G2 (human hepatocellular carcinoma). Further details: method as in PMID 30153471, PMID 33999337. The following applies: MTT; results based on previous work; read-out: IC50 ± SEM, Hep G2; cited from earlier work.
Test [3] deals with KB (human epidermoid carcinoma). Further details: method as in PMID 30153471, PMID 33999337. The following applies: MTT; results based on previous work; read-out: IC50 ± SEM, KB; cited from earlier work.
Test [4] addresses T2, COX-1 (purified PGHS-1 from ram seminal vesicles) (Ovis aries, UniProt P05979).
T2 construct: Purified PGHS-1 from ram seminal vesicles for COX-1; purchased Cayman Chemical Co., Ann Arbor, MI, USA; host or cells: ram seminal vesicles (tissue-purified)
T2 sequence (P05979 25-600): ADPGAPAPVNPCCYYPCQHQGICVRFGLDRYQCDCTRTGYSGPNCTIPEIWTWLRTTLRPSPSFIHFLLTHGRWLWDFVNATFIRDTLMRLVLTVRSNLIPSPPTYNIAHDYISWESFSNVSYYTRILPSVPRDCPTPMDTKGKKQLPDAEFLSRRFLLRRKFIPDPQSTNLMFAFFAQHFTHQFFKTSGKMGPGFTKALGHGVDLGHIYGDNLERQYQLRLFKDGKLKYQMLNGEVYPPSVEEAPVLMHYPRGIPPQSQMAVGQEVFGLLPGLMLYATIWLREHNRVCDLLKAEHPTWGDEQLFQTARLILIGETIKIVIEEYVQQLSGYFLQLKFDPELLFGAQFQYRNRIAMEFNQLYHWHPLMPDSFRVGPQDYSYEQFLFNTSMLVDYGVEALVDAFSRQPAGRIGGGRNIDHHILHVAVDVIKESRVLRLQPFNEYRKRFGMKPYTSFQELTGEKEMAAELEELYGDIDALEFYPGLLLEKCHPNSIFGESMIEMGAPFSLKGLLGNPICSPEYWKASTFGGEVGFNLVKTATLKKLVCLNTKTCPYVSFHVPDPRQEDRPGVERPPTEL
The experiment in a line: COX-1 enzyme inhibition assay (PGE2 ELISA). Format: biochemical. The following applies: mean ± SD (n = 4). The procedure: as §1, §2
(ELISA stands for enzyme-linked immunosorbent assay.)

For test [5], the system named is HT-29 (human colon adenocarcinoma). On the set-up: method as in PMID 30153471, PMID 33999337. The following applies: MTT; results based on previous work; read-out: IC50 ± SEM, HT-29; cited from earlier work.
Test [6] deals with HeLa S3 (human cervical carcinoma). Further details: method as in PMID 30153471, PMID 33999337. The following applies: MTT; results based on previous work; read-out: IC50 ± SEM, HeLa S3; cited from earlier work.
Test [7] concerns MCF-7 (human breast adenocarcinoma). Further details: method as in PMID 30153471, PMID 33999337. The following applies: MTT; results based on previous work; read-out: IC50 ± SEM, MCF-7; cited from earlier work.
Test [8] deals with four cancer cells (KB, HeLa S3, MCF-7, and Hep G2). The following applies: HeLa S3, MCF-7, Hep G2, earlier studies, read-out: IC50 values against four cancer cells; cited from earlier work.
For test [9], the system named is Hep G2 (human hepatocellular carcinoma). The experiment in a line: MTT cytotoxic activity assay, Hep G2. Format: cell-based. The following applies: HepG2, 72 h, mean ± SEM of three replicates. The procedure:
(§3) The cytotoxic activity of the isolated compounds was evaluated using the MTT viability assay with doxorubicin as the positive control and the results are presented in Table 2.
(§4) The MTT colorimetric method was performed to evaluate cytotoxic activity of the isolated compounds against human epidermoid carcinoma (KB; ATCC CCL17), human cervical carcinoma (HeLa S3; ATCC CCL2-2), human colon adenocarcinoma (HT-29; ATCC HTB-38), human breast adenocarcinoma (MCF-7; ATCC HTB-22), and human hepatocellular carcinoma (Hep G2; ATCC HB-8065) cell lines according to the previous method. […] After centrifugation at 1400 rpm for 5 min at 4 °C, the supernatant was decanted and DMSO (100 µL/well) was added to allow formazan product solubilization, which was subsequently measured by a microplate reader (Tecan Trading AG, Switzerland) at wavelength 550 nm. […] The results are expressed as the mean values of three replicates for three independent experiments. IC50 values were determined by graphical analysis using SigmaPlot 10 (Systat Software Inc., San Jose, CA, USA), obtained by plotting the cell viability percentage versus sample concentration.
A general note: Tetrazolium assays rely on reduction of a dye to a coloured formazan, in cell work by metabolically active cells.

Test [10] relates to KB (human epidermoid carcinoma). Kind of test: MTT cytotoxic activity assay, KB. The following applies: 72 h, mean ± SEM of three replicates. Format: cell-based. As for the experimental part:
as §3
(§5) The MTT colorimetric method was performed to evaluate cytotoxic activity of the isolated compounds against human epidermoid carcinoma (KB; ATCC CCL17), human cervical carcinoma (HeLa S3; ATCC CCL2-2), human colon adenocarcinoma (HT-29; ATCC HTB-38), human breast adenocarcinoma (MCF-7; ATCC HTB-22), and human hepatocellular carcinoma (Hep G2; ATCC HB-8065) cell lines according to the previous method. The cancer cells were cultured in MEM containing 10% fetal bovine serum in the presence of 100 U/mL penicillin and 100 μg/mL streptomycin sulphate (Gibco, Rockville, MD, USA), seeded in a 96-well plate (3000 cells/well), and pre-incubated at 37 °C for 24 h in a 5% CO2 humidified atmosphere. The tested compounds with serial concentrations (0.3–100 μM) were added and incubated for a further 72 h in the same condition. At the end of treatment, 20 µL of MTT solution (5 mg/mL in PBS, Sigma, St. Louis, MI, USA) was added to each well and further incubated for 3 h. After centrifugation at 1400 rpm for 5 min at 4 °C, the supernatant was decanted and DMSO (100 µL/well) was added to allow formazan product solubilization, which was subsequently measured by a microplate reader (Tecan Trading AG, Switzerland) at wavelength 550 nm. Control cells were treated with 0.1% DMSO. Doxorubicin (tested concentrations: 0.01–3.0 μM, Sigma) was used as the positive control. The results are expressed as the mean values of three replicates for three independent experiments. IC50 values were determined by graphical analysis using SigmaPlot 10 (Systat Software Inc., San Jose, CA, USA), obtained by plotting the cell viability percentage versus sample concentration.

The subject of test [11] is HT-29 (human colon adenocarcinoma). The experiment in a line: MTT cytotoxic activity assay, HT-29. The following applies: 72 h, mean ± SEM of three replicates. Format: cell-based. As for the experimental part:
as §3, §4

Test [12] relates to MCF-7 (human breast adenocarcinoma). Kind of test: MTT cytotoxic activity assay, MCF-7. Format: cell-based. The following applies: MCF7, 72 h, mean ± SEM of three replicates. The procedure: as §3, §4
Test [13] has as its system HeLa S3 (human cervical carcinoma). Kind of test: MTT cytotoxic activity assay, HeLa S3. Format: cell-based. The following applies: 72 h, mean ± SEM of three replicates. As for the experimental part:
as §3, §5

The target of test [14] is T2, COX-1 (purified PGHS-1 from ram seminal vesicles). Further details: method as in PMID 32627543. The following applies: at 20 µM; cited from earlier work.

What is called inhibition is the relative decrease from the control value, in per cent. One may read the IC50 as the concentration needed to halve the response being measured. `CC(C)=CCc1c2c(c3oc4c(O)c(O)ccc4c(=O)c3c1O)C(C)(C)[C@H](C)O2` [Compound 8, formoxanthone C]: the inhibition at 20 µM in test [1] was less than 10%; in test [4], 24 ± 15%. The 50% inhibitory concentration (IC50) in [2] was 3.8 ± 0.5 µM; in test [3] it was 0.2 ± 0.1 µM; in [5], 21.9 ± 1.2 µM; in test [6] it was 0.3 ± 0.1 µM; in test [7], 4.9 ± 0.4 µM; in test [8], less than 10 µM.

Turning to `COc1cccc2c1C(=O)c1c(O)c3c(c(O)c1C2=O)C[C@@](O)(C(=O)CO)C[C@@H]3O[C@H]1C[C@H](N)[C@H](O)[C@H](C)O1` [Doxorubicin, reference compound], the IC50 turned out to be 1 ± 0.17 µM in [9]; 0.02 ± 0.01 µM in test [10]; 0.59 ± 0.03 µM in test [11]; 1.29 ± 0.02 µM in [12]; 0.15 ± 0.02 µM in test [13].

Regarding `C=C(C)[C@H]1C[C@@H](C[C@@]23C[C@@H](/C=C/C(C)C)C(C)(C)[C@@](CC=C(C)C)(C2=O)c2oc4cc(O)c(O)cc4c(=O)c2C3=O)C1(C)C` [picrorhizone H], the “COX-1 inhibitory activity, % inhibition” value in [14] is 35.2 ± 9.6%.
